target: S1P1/EDG1 (Homo sapiens, UniProt P21453); assay: S1P1 CRE-bla CHOK1 reporter assay, inhibition of Forskolin induced cAMP; type: cell-based; settings: agonist activity range, S1P1 CRE-bla CHOK1, 2 μM Forskolin; read-out: S1P1 ACTIVITY
Protocol: Generation of S1P1-Mediated Inhibition of cAMP Reporter Assay
A mammalian expression plasmid containing S1P1/EDG1 cloned into pcDNA3.1 was purchased from Missouri S&T cDNA Resource Centre. […] S1P1/pcDNA3.1 was transfected into the CRE-bla CHO K1 (Invitrogen) cell line, and stable single cell clones were selected using standard techniques.
S1P1 CRE-Bla CHOK1 Reporter Assay—Characterization of S1P1 Agonists
Cells were seeded into 384-well black wall/clear bottom plates at 10^4 cells/well/19.5 μl assay media (DMEM-phenol free, 0.5% charcoal/dextran stripped serum, 2 mM glutamine, 0.1 mM NEAA, 1 mM Na-Pyruvate, 25 mM Hepes) and incubated for 18 hrs at 37° C. in 5% CO2. Dose response curves (10-point) were generated in 10 mM Hepes, 0.1% Pluronic F127, in the presence of Forskolin. Cells were treated with 0.5 μl compound in the presence of 2 μM Forskolin for 4 hrs at 37° C. The FRET-based β-lactamase fluorescent substrate (LiveBLAzer™-FRET B/G Loading Kit CC4-AM; Invitrogen) was prepared according to manufacturer's directions, and incubated with cells for 2 hrs at room temperature. […] Data was analyzed by non-linear regression to determine the EC50 for inhibition of Forskolin induced cAMP.

Sequence of S1P1/EDG1 (P21453 whole entry): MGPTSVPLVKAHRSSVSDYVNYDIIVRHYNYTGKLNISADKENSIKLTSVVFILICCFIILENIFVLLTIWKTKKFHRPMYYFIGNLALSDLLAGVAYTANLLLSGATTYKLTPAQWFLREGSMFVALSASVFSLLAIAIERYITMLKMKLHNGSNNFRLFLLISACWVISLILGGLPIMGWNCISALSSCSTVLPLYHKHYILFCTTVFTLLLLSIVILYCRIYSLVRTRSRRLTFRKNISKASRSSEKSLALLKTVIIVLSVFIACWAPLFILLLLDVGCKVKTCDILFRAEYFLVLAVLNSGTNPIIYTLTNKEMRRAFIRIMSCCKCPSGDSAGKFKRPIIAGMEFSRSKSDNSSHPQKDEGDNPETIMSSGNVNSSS

Structure (SMILES) | EC50 [pM]
CC(C)Oc1ccc(-c2nc(-c3cccc4c3CC[C@H]4N(CCO)S(C)(=O)=O)no2)cc1C#N [Compound 112, (R)-N-(4-(5-(3 cyano-4-isopropoxyphenyl)-1,2,4-oxadiazol-3-yl)-2,3-dihydro-1H-inden-1-yl)-N-(2-hydroxyethyl)methanesulfonamide] | 500 to 5000
CCOC(=O)CNC1CCc2c(-c3noc(-c4ccc(OC(C)C)c(C#N)c4)n3)cccc21 (racemic) [Compound 40] | 50 to 500
CCS(=O)(=O)N[C@H]1CCc2c(-c3noc(-c4ccc(OC(C)C)c(C#N)c4)n3)cccc21 [Compound 73] | 500 to 5000
CC(C)Oc1ccc(-c2nc(-c3cccc4c3CC[C@H]4NCC(N)=O)no2)cc1C#N [Compound 51] | < 50
CC(C)Oc1ccc(-c2nc(-c3cccc4c3CC[C@H]4NC(=O)CO)no2)cc1C#N [Compound 65, (R)-N-(4-(5-(3 cyano-4-isopropoxyphenyl)-1,2,4-oxadiazol-3-yl)-2,3-dihydro-1H-inden-1-yl)-2-hydroxyacetamide] | < 50
CC(C)Oc1ccc(-c2nc(-c3cccc4c3CC[C@H]4NC(=O)N3CC[C@H](O)C3)no2)cc1C#N [Compound 231] | 50 to 500
CC(C)Oc1ccc(-c2nc(-c3cccc4c3CC[C@@H]4NS(=O)(=O)CCN3CC[C@H](O)C3)no2)cc1C#N [Compound 174] | 500 to 5000
CC(C)Oc1ccc(-c2nc(-c3cccc4c3CC[C@H]4NC(=O)N3CC[C@@H](N(C)C)C3)no2)cc1C#N [Compound 242] | 500 to 5000
CCN(CC)C(=O)CN[C@@H]1CCc2c(-c3noc(-c4ccc(OC(C)C)c(C#N)c4)n3)cccc21 [Compound 60] | 500 to 5000
CC(C)Oc1ccc(-c2nc(-c3cccc4c3CC[C@H]4NCC(=O)N3CC3)no2)cc1C#N [Compound 127] | 500 to 5000
CC(C)Oc1ccc(-c2nc(-c3cccc4c3CC[C@H]4NS(=O)(=O)CCN3CC[C@H](O)C3)no2)cc1C#N [Compound 172] | 500 to 5000
CC(C)Oc1ccc(-c2nc(-c3cccc4c3CC[C@@H]4NS(=O)(=O)CC(=O)N3CCC(O)CC3)no2)cc1C#N [Compound 193] | 50 to 500
CC(C)Oc1ccc(-c2nc(-c3cccc4c3CC[C@H]4N(CCO)CCO)no2)cc1C#N [Compound 118] | 50 to 500
CC(C)Oc1ccc(-c2nc(-c3cccc4c3CC[C@H]4NCC(=O)N3CC[C@@H](O)C3)no2)cc1C#N [Compound 133] | 50 to 500
CC(C)Oc1ccc(-c2nc(-c3cccc4c3CC[C@H]4NS(=O)(=O)CC(=O)O)no2)cc1C#N [Compound 184, (R)-2 (N (4-(5-(3 cyano-4-isopropoxyphenyl)-1,2,4-oxadiazol-3-yl)-2,3-dihydro-1H-inden-1-yl)sulfamoyl)acetic acid] | < 50
CCOC(=O)N[C@H]1CCc2c(-c3noc(-c4ccc(OC(C)C)c(C#N)c4)n3)cccc21 [Compound 152] | 500 to 5000
COCCOc1ccc(-c2nc(-c3cccc4c3CCC4NCCO)no2)cc1C#N (racemic) [Compound 106] | > 5000
CC(C)Oc1ccc(-c2nc(-c3cccc4c3CC[C@@H]4NC(=O)CO)no2)cc1C#N [Compound 137] | < 50
CC(=O)N[C@@H]1CCc2c(-c3noc(-c4ccc(OC(C)C)c(C#N)c4)n3)cccc21 [Compound 138, (R)-N-(4-(5-(3-cyano-4-isopropoxyphenyl)-1,2,4-oxadiazol-3-yl)-2,3-dihydro-1H-inden-1-yl)acetamide] | < 50
CC(C)Oc1ccc(-c2nc(-c3cccc4c3CC[C@H]4NC(=O)N3CC[C@H](N(C)C)C3)no2)cc1C#N [Compound 243] | 500 to 5000
CC(C)Oc1ccc(-c2nc(-c3cccc4c3CCC4N3CC[C@H](N)C3)no2)cc1C#N (mixture of isomers) [Compound 32] | 500 to 5000
CC(C)Oc1ccc(-c2nc(-c3cccc4c3CC[C@H]4NCC(=O)O)no2)cc1C#N [Compound 61] | < 50
CC(C)Oc1ccc(-c2nc(-c3cccc4c3CC[C@H]4NS(=O)(=O)CC(N)=O)no2)cc1C#N [Compound 197] | < 50
CC(C)Oc1ccc(-c2nc(-c3cccc4c3CC[C@H]4NCC(F)F)no2)cc1C#N [Compound 140] | 500 to 5000
CC(C)Oc1ccc(-c2nc(-c3cccc4c3CC[C@H]4NS(=O)(=O)CCN3CC[C@@H](O)C3)no2)cc1C#N [Compound 171] | 50 to 500
CC(C)Oc1ccc(-c2nc(-c3cccc4c3CC[C@@H]4O)no2)cc1C#N [Compound 6, (S)-5-(3-(1-hydroxy-2,3-dihydro-1H-inden-4-yl)-1,2,4-oxadiazol-5-yl)-2-isopropoxy-benzonitrile] | < 50
CC(C)Oc1ccc(-c2nc(-c3cccc4c3CC[C@@H]4NS(=O)(=O)CCN3CC[C@@H](O)C3)no2)cc1C#N [Compound 173] | 500 to 5000

Structure (SMILES) | EC50 [pM]
CC(C)Oc1ccc(-c2nc(-c3cccc4c3CC[C@H]4N(CCO)S(=O)(=O)c3ccccc3)no2)cc1C#N [Compound 117] | > 5000
CC(C)Oc1ccc(-c2nc(-c3cccc4c3CC[C@H]4NCCC(=O)O)no2)cc1C#N [Compound 62, (R)-3-((4-(5-(3-cyano-4-isopropoxyphenyl)-1,2,4-oxadiazol-3-yl)-2,3-dihydro-1H-inden-1-yl)amino)propanoic acid] | < 50
CC(C)Oc1ccc(-c2nc(-c3cccc4c3CCC4NC[C@H](C)O)no2)cc1C#N (mixture of isomers) [Compound 43] | 50 to 500
CC(C)Oc1ccc(-c2nc(-c3cccc4c3CC[C@@H]4NS(=O)(=O)C3CC3)no2)cc1C#N [Compound 167] | 50 to 500
CC(C)Oc1ccc(-c2nc(-c3cccc4c3CC[C@@H]4NS(=O)(=O)CCN3CCOCC3)no2)cc1C#N [Compound 177] | 500 to 5000
CC(C)Oc1ccc(-c2nc(-c3cccc4c3CC[C@@H]4NC(=O)OCCO)no2)cc1C#N [Compound 153] | 50 to 500
CC(C)Oc1ccc(-c2nc(-c3cccc4c3CC[C@@H]4NCC(=O)N(C)C)no2)cc1C(N)=O [Compound 121] | > 5000
CC(C)Oc1ccc(-c2nc(-c3cccc4c3CC[C@H]4N[C@@H](C)C(=O)O)no2)cc1C#N [Compound 64] | < 50
CC(=O)N[C@H]1CCc2c(-c3noc(-c4ccc(OC(C)C)c(C#N)c4)n3)cccc21 [Compound 139, (S)-N-(4-(5-(3 cyano-4-isopropoxyphenyl)-1,2,4-oxadiazol-3-yl)-2,3-dihydro-1H-inden-1-yl)acetamide] | 50 to 500
CC(C)Oc1ccc(-c2nc(-c3cccc4c3CC[C@@H]4N3CCOC3=O)no2)cc1C#N [Compound 155] | 50 to 500
CC(C)Oc1ccc(-c2nc(-c3cccc4c3CC[C@@H]4NC(=O)N3CCC(N(C)C)CC3)no2)cc1C#N [Compound 247] | 500 to 5000
CCOc1ccc(-c2nc(-c3cccc4c3CC[C@H]4O)no2)cc1C#N [Compound 3] | 50 to 500
CC(C)Oc1ccc(-c2nc(-c3cccc4c3CC[C@H]4NCC(C)(C)O)no2)cc1C#N [Compound 57] | 500 to 5000
CC(C)Oc1ccc(-c2nc(-c3cccc4c3CC[C@@H]4NCc3ccccc3)no2)cc1C#N [Compound 157] | 500 to 5000
CC(C)N[C@H]1CCc2c(-c3noc(-c4ccc(OC(C)C)c(C#N)c4)n3)cccc21 [Compound 87] | 500 to 5000
CC(C)Oc1ccc(-c2nc(-c3cccc4c3CCC4NC[C@@H](O)CO)no2)cc1C#N (mixture of isomers) [Compound 30] | 50 to 500
CC(C)Oc1ccc(-c2nc(-c3cccc4c3CC[C@H]4NC(=O)CN)no2)cc1C#N [Compound 66] | 50 to 500
CC(C)Oc1ccc(-c2nc(-c3cccc4c3CC[C@H]4N[C@H](C)CO)no2)cc1C#N [Compound 56, 5-(3-((R)-1-(((R)-1-hydroxypropan-2-yl)amino)-2,3-dihydro-1H-inden-4-yl)-1,2,4-oxadiazol-5-yl)-2-isopropoxybenzonitrile] | 50 to 500
CC(C)Oc1ccc(C#N)cc1-c1nc(-c2cccc3c2CC[C@H]3N)no1 [Compound 99, (R)-3-(3-(1-amino-2,3-dihydro-1H-inden-4-yl)-1,2,4-oxadiazol-5-yl)-4-isopropoxy benzonitrile] | > 5000
CCOc1ccc(-c2nc(-c3cccc4c3CC[C@@H]4O)no2)cc1C#N [Compound 4] | 50 to 500
CC(C)Oc1ccc(-c2nc(-c3cccc4c3CC[C@@H]4NS(=O)(=O)CC(=O)N(C)C)no2)cc1C#N [Compound 195, (S)-2 (N (4-(5-(3 cyano-4-isopropoxyphenyl)-1,2,4-oxadiazol-3-yl)-2,3-dihydro-1H-inden-1-yl)sulfamoyl)-N,N-dimethylacetamide] | 50 to 500
CC(C)Oc1ccc(-c2nc(-c3cccc4c3CCC4N3CCCCC3)no2)cc1C#N (racemic) [Compound 48] | > 5000
CCN(CC(=O)N(C)C)[C@@H]1CCc2c(-c3noc(-c4ccc(OC(C)C)c(C#N)c4)n3)cccc21 [Compound 116] | 500 to 5000
CC(C)Oc1ccc(-c2nc(-c3cccc4c3CCC4NC[C@@H](C)O)no2)cc1C#N (mixture of isomers) [Compound 42] | 500 to 5000
CC(C)Oc1ccc(-c2nc(-c3cccc4c3CCC4N3CCNCC3)no2)cc1C#N (racemic) [Compound 47] | 50 to 500
CC(C)Oc1ccc(-c2nc(-c3cccc4c3CCC4N3CC[C@@H](O)C3)no2)cc1C#N (mixture of isomers) [Compound 33] | 500 to 5000
CC(C)Oc1ccc(-c2nc(-c3cccc4c3CC[C@@H]4NC(=O)N3CCC[C@@H](O)C3)no2)cc1C#N [Compound 220] | 50 to 500
